Measurements as given in patent publication US8710233B2 (Gruenenthal GmbH, priority 2005, dated 2014).
pIC50, pKi: −log10 of the molar value. Read-outs that look alike come from different tables or passages of the source.

Assays:
[1] = tested on: capsaicin induced hypothermie; assay: Hypothermie assay in the mouse (capsaicin induced hypothermie); assay type: in vivo; details: mouse, read-out: inhibition hypothermie (n = 5); for inhibition in vivo at 0.3 mg/kg: 0.3 mg/kg body weight po; for inhibition in vivo at 1 mg/kg: 1 mg/kg body weight po
Description: V. Hypothermie Assay an der Maus
Male NMRI mice (weight 25-35 gram, supplier IFFA CREDO, Bruxelles, Belgium) are used in the hypothermie assay. The animals are kept under standardized conditions: light/darkness interval (6:00 to 18:00 light; 18:00 to 6:00 Uhr darkness), room temperature 19-22° C., relative humidity 35-70%, 15 times per hour change of compartment air, airflow <0.2 m/sec. The animals were fed on a standardized diet (ssniff diet, ssniff Spezialdiäten GmbH, Soest, Germany) and tap water. Water and diet were detracted during the experiment. All animals were used once in the experiment. The animals were allowed to adapt to the experimental conditions for at least 5 days.
The acute application of capsaicin (VR-1 agonist) leads to a decrease of the core body temperature in rat and mice via stimulation of heat sensors. Only compounds which act as specific VR-1-receptor antagonists can antagonize the capsaicin induced hypothermie. In contrast, morphine induced hypothermie is not antagonized by VR-1 antagonists. Thus, this experiment is suitable for the determination of compounds that act as VR1-antagonists via their effect on the core body temperature.
For the determination of the core body temperature a digital thermometer was used (Thermalert TH-5, physitemp, Clifton N.J., USA). The measuring head was inserted into the rectum.
The individual basis value is determined by measuring the body temperature twice in an interval of about half an hour. […] […] The test compound is given 10 min (i.v.) or 15 min (p.o.), respectively, before application of capsaicin. The body temperature is determined 7.5/15 and 30 min after application of capsaicin (i.v.+i.p.) or 15/30/60/90/120 min after application of capsaicin (p.o.+i.p.), respectively. In addition, another group of mice is only given the test compound or a vehicle control.
The measuring points are given as average values±S.E.M. of the absolute values. The antagonistic effect is given in percent of inhibition of capsaicin induced hypothermie.

[2] = target: T1, vanilloid receptor 1 (VR1/TRPV1) of the rat species (Rattus norvegicus, UniProt O35433); assay: FLIPR Ca2+ influx assay on rat dorsal root ganglia cells (pharmacological method I); assay type: cell-based
T1 construct: The spinal column is removed from decapitated rats; from tissue; host or cells: primary cells dissociated from rat dorsal root ganglia
T1 sequence (O35433 whole entry): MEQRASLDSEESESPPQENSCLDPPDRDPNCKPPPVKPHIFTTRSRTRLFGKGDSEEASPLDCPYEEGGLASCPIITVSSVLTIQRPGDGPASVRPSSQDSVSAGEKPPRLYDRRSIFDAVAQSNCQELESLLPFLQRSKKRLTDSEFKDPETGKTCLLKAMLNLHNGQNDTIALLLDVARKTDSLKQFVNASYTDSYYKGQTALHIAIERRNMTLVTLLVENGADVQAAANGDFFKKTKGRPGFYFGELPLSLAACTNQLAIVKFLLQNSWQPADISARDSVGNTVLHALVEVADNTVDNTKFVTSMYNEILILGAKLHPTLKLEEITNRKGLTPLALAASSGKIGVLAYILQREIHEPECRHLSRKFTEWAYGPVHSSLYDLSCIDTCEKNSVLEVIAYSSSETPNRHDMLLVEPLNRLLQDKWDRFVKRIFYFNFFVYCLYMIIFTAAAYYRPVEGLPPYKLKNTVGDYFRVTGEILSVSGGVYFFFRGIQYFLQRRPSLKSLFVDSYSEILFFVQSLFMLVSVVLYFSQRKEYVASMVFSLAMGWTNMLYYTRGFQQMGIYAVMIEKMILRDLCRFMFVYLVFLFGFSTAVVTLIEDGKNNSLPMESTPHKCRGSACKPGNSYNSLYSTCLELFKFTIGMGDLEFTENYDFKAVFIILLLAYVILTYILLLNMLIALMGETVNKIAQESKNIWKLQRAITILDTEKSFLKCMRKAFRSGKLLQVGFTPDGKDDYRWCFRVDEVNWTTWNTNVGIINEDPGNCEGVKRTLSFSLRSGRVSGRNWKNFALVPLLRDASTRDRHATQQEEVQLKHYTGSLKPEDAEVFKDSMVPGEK
How it was run: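 Primary rat dorsal root ganglion cells loaded with 2 μM Fluo-4, Ca2+ influx read on FLIPR as peak fluorescence. Triplicates, at least 3 independent experiments.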

vanilloid receptor (VR1) = target: T2, vanilloid receptor (VR1) (Homo sapiens, UniProt Q8NER1); assay: FLIPR Ca2+ influx assay on CHO K1 cells transfected with the VR1 gene (pharmacological method II); assay type: cell-based
T2 construct: expressed in transfected cells; host or cells: CHO K1 cells (ECACC), stably transfected
T2 sequence (Q8NER1 whole entry): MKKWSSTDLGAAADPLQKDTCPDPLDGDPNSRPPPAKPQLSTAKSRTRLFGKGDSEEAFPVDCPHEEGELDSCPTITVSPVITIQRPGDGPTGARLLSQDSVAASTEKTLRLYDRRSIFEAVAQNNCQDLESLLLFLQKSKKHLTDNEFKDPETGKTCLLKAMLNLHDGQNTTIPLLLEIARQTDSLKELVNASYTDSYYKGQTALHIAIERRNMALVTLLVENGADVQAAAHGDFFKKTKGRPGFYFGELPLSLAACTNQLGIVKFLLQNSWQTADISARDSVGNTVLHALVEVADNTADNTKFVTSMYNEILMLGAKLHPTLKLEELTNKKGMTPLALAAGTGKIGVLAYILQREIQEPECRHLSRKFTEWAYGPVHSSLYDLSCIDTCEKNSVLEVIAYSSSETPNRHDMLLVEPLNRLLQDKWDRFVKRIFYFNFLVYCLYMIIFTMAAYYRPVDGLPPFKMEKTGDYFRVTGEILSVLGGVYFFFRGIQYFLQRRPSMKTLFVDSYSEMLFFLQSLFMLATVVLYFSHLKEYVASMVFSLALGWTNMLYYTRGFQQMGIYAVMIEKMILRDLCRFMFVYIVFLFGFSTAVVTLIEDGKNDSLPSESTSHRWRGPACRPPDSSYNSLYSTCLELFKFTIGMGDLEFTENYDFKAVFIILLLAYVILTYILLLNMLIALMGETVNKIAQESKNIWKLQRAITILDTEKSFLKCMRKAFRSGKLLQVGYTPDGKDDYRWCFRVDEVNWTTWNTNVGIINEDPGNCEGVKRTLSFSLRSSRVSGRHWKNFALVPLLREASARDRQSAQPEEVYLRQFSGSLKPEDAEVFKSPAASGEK

VR1/TRPV1 receptor = VR1/TRPV1 receptor (Homo sapiens, UniProt Q8NER1); assay: IC50 (human) after pH stimulus; assay type: cell-based
Chain of VR1/TRPV1 receptor (Q8NER1 whole entry): as above

[3] = table 4, capsaicin, read-out: Ki (rat) Cap.
[4] = table 4, capsaicin, read-out: Ki (human) Cap.
[5] = Table 2, displacement of capsaicin (100 nM), Cheng-Prusoff, read-out: Ki (rat)
[6] = Table 2, displacement of capsaicin (100 nM), Cheng-Prusoff, read-out: Ki (human)
[7] = Ki (rat) Cap., table 4, capsaicin
[8] = @ 1 μM, ne = no effect, read-out: inhibition in percent, IC50 (human) after pH stimulus

Structure (SMILES)	pKi [2, 3]	pKi (vanilloid receptor (VR1); [4])	pIC50 (VR1/TRPV1 receptor; table 4)	also measured
CC(C(=O)NCc1ccc(C(F)(F)F)nc1OCc1ccccc1)c1ccc(NS(C)(=O)=O)c(F)c1 (stereo not shown) [Compound 106]	–	–	–	inhibition in vivo at 0.3 mg/kg [1]: 21%; inhibition in vivo at 1 mg/kg [1]: 22%; inhibition in vivo at 10 mg/kg ([1]; 10 mg/kg body weight po): 84%
CC(C(=O)NCc1ccc(C(F)(F)F)nc1N1CCC(Nc2ccccc2)CC1)c1ccc(NS(C)(=O)=O)c(F)c1 (stereo not shown) [Compound 290]	–	–	–	inhibition in vivo at 0.3 mg/kg [1]: 78%; inhibition in vivo at 1 mg/kg [1]: 68%
CCCCCCOc1nc(C(F)(F)F)ccc1CNC(=O)[C@H](C)c1ccc(NS(C)(=O)=O)c(F)c1 [Example 94, (R)-2-(3-fluoro-4-methylsulfonamido-phenyl)-N-(2-hexyloxy-6-trifluoromethyl-pyridin-3-ylmethyl)-propionamide]	–	–	–	inhibition in vivo at 0.3 mg/kg [1]: 0%
COc1cc(C(C)C(=O)NCc2ccc(C(F)(F)F)nc2N2CCC(C)CC2)ccc1NS(C)(=O)=O (stereo not shown) [Example 289, 2-(4-methylsulfonamido-3-methoxy-phenyl)-N-(4-methyl-6′-trifluoromethyl-3,4,5,6-tetrahydro-2H-[1,2′]bipyridinyl-3′-ylmethyl)-propionamide]	8.48	8.60	–	inhibition in percent, IC50 (human) after pH stimulus (VR1/TRPV1 receptor; @ 1 μM, ne = no effect): ne @ 1 μM
CC(C(=O)NCc1ccc(C(F)(F)F)nc1Br)c1ccc(NS(C)(=O)=O)c(F)c1 (stereo not shown) [Example 6, N-((2-bromo-6-(trifluoromethyl)pyridin-3-yl)methyl)-2-(3-fluoro-4-(methylsulfonamido)phenyl)propanamide]	–	–	–	pKi [2, 5]: 7.02; pKi (vanilloid receptor (VR1); [6]): 6.77; pIC50 (VR1/TRPV1 receptor; Table 2): 5.58
CC(C(=O)NCc1ccc(C(F)(F)F)nc1-c1cccc(Cl)c1)c1ccc(NS(C)(=O)=O)c(F)c1 (stereo not shown) [Example 149, N-[2-(3-chloro-phenyl)-6-trifluoromethyl-pyridin-3-ylmethyl]-2-(3-fluoro-4-methylsulfonamido-phenyl)-propionamide]	9.15	9.30	8.01	–
COCC1CCN(c2nc(C(F)(F)F)ccc2CNC(=O)C(C)c2ccc(NS(C)(=O)=O)c(F)c2)CC1 (stereo not shown) [Example 199, 2-(3-fluoro-4-methylsulfonamido-phenyl)-N-(4-methoxymethyl-6′-trifluoromethyl-3,4,5,6-tetrahydro-2H-[1,2′]bipyridinyl-3′-ylmethyl)-propionamide]	8.80	8.85	7.51	–
CC(C(=O)NCc1ccc(C(F)(F)F)nc1N1CCC(C(F)(F)F)CC1)c1ccc(NS(C)(=O)=O)c(F)c1 (stereo not shown) [Example 190, N-(4,6′-bis-trifluoromethyl-3,4,5,6-tetrahydro-2H-[1,2′]bipyridinyl-3′-ylmethyl)-2-(3-fluoro-4-methylsulfonamido-phenyl)-propionamide]	9.40	9.22	7.51	–
CCC1CCN(c2nc(C(F)(F)F)ccc2CNC(=O)C(C)c2ccc(NS(C)(=O)=O)c(F)c2)CC1 (stereo not shown) [Example 197, N-(4-ethyl-6′-trifluoromethyl-3,4,5,6-tetrahydro-2H-[1,2′]bipyridinyl-3′-ylmethyl)-2-(3-fluoro-4-methylsulfonamido-phenyl)-propionamide]	9.40	8.82	7.01	–
CC(C(=O)NCc1ccc(C(F)(F)F)nc1OCc1ccc(C(F)(F)F)cc1)c1ccc(NS(C)(=O)=O)c(F)c1 (stereo not shown) [Example 206, 2-(3-fluoro-4-methylsulfonamido-phenyl)-N-[6-trifluoromethyl-2-(4-trifluoromethyl-benzyloxy)-pyridin-3-ylmethyl]-propionamide]	–	8.49	7.18	pKi [2, 7]: 9.15
CCCCCCOc1nc(C(C)(C)C)ccc1CNC(=O)C(C)c1ccc(NS(C)(=O)=O)c(F)c1 (stereo not shown) [Example 236, N-(6-tert-butyl-2-hexyloxy-pyridin-3-ylmethyl)-2-(3-fluoro-4-methylsulfonamido-phenyl)-propionamide]	8.85	8.57	–	inhibition at 1 µM (VR1/TRPV1 receptor; [8]): 76%; inhibition at 10 µM (VR1/TRPV1 receptor; @ 10 μM, read-out: inhibition in percent, IC50 (human) after pH stimulus): 69%
CC(C(=O)NCc1ccc(C(F)(F)F)nc1N1CCCCCCC1)c1ccc(NS(C)(=O)=O)c(F)c1 (stereo not shown) [Example 128, N-(2-azocan-1-yl-6-trifluoromethyl-pyridin-3-ylmethyl)-2-(3-fluoro-4-methylsulfonamido-phenyl)-propionamide]	9.00	9.15	7.56	–
CCCCCc1nc(C(F)(F)F)ccc1CNC(=O)C(C)c1ccc(NS(C)(=O)=O)c(F)c1 (stereo not shown) [Example 142, 2-(3-fluoro-4-methylsulfonamido-phenyl)-N-(2-pentyl-6-trifluoromethyl-pyridin-3-ylmethyl)-propionamide]	8.92	9.00	8.05	–
CCC1CCN(c2cc(C(F)(F)F)ccc2CNC(=O)C(C)c2ccc(NS(C)(=O)=O)c(F)c2)CC1 (stereo not shown) [Example 229, N-[2-(4-ethyl-piperidin-1-yl)-4-trifluoromethyl-benzyl]-2-(3-fluoro-4-methylsulfonamido-phenyl)-propionamide]	9.15	9.15	7.75	–
CC(C(=O)NCc1ccc(C(F)(F)Cl)nc1OCc1cccnc1)c1ccc(NS(C)(=O)=O)c(F)c1 (stereo not shown) [Example 181, N-[6-(chloro-difluoro-methyl)-2-(pyridin-3-ylmethoxy)-pyridin-3-ylmethyl]-2-(3-fluoro-4-methylsulfonamido-phenyl)-propionamide]	8.25	7.84	5.97	–
CCCCCCOc1nc(C(F)(F)F)ccc1CNC(=O)C(C)c1ccc(NS(C)(=O)=O)c(C)c1 (stereo not shown) [Example 257, N-(2-hexyloxy-6-trifluoromethyl-pyridin-3-ylmethyl)-2-(4-methylsulfonamido-3-methyl-phenyl)-propionamide]	9.52	9.22	–	inhibition at 1 µM (VR1/TRPV1 receptor; [8]): 67%
CCc1ccc(COc2nc(C(F)(F)F)ccc2CNC(=O)C(C)c2ccc(NS(C)(=O)=O)c(F)c2)cc1 (stereo not shown) [Example 242, N-[2-(4-ethyl-benzyloxy)-6-trifluoromethyl-pyridin-3-ylmethyl]-2-(3-fluoro-4-methylsulfonamido-phenyl)-propionamide]	–	8.43	6.78	pKi [2, 7]: 8.92
CC(C(=O)NCc1ccc(C(F)(F)F)nc1N1CCN(Cc2ccccc2)CC1)c1ccc(NS(C)(=O)=O)c(F)c1 (stereo not shown) [Example 73, N-((2-(4-benzylpiperazin-1-yl)-6-(trifluoromethyl)pyridin-3-yl)methyl)-2-(3-fluoro-4-(methylsulfonamido)phenyl)propanamide]	–	–	–	pKi [2, 5]: 8.18; pKi (vanilloid receptor (VR1); [6]): 8.06; pIC50 (VR1/TRPV1 receptor; Table 2): 6.20
CC(C(=O)NCc1ccc(C(F)(F)F)nc1N1CCN(c2ccccn2)CC1)c1ccc(NS(C)(=O)=O)c(F)c1 (stereo not shown) [Example 214, 2-(3-fluoro-4-methylsulfonamido-phenyl)-N-[2-(4-pyridin-2-yl-piperazin-1-yl)-6-trifluoromethyl-pyridin-3-ylmethyl]-propionamide]	8.82	8.85	6.97	–
CC(C(=O)NCc1ccc(C(F)(F)F)nc1OC1CCC1)c1ccc(NS(C)(=O)=O)c(F)c1 (stereo not shown) [Example 156, N-(2-cyclobutoxy-6-trifluoromethyl-pyridin-3-ylmethyl)-2-(3-fluoro-4-methylsulfonamido-phenyl)-propionamide]	–	8.85	7.16	pKi [2, 7]: 8.77
CC(C(=O)NCc1ccc(C(F)(F)F)nc1N1CCN(c2ccccc2F)CC1)c1ccc(NS(C)(=O)=O)c(F)c1 (stereo not shown) [Example 201, 2-(3-fluoro-4-methylsulfonamido-phenyl)-N-{2-[4-(2-fluoro-phenyl)-piperazin-1-yl]-6-trifluoromethyl-pyridin-3-ylmethyl}-propionamide]	8.92	8.62	7.47	–
